US12636385B2, “Selective ligands for tau aggregates” (Sentonix, Inc., priority 2018, dated 2026)

Experiments:
[1] = molecular target: T1, 0N4R Tau fibrils (Homo sapiens, UniProt P10636); assay: ^3H-THK5117 competition binding to tau fibrils in vitro; settings: for Selectivity for tau relative to Aβ: calculated from [^3H]-THK5117 tau and [^3H]-AZD2184 Aβ assays
T1 construct: made in house
Protocol: Preparation of recombinant 0N4R Tau fibrils was performed as previously described in Morozova, O. A., Biochemistry (2013), Vol., 52(40), pages 6960-6967. Competition binding experiments to 0N4R Tau fibrils were performed by incubating increasing concentrations [10^−10-10^−6 M] of the Example compounds of the invention, or the known tau specific ligand PBB3 (PBB3 was synthesized as previously described in M. Maruyama, et al, Neuron 2013, 79, 1094-1108) or MK6240 (Novandi Chemistry AB), in the presence of 3 nM of the known tau ligand [^3H]-THK5117 (Novandi Chemistry) and 0.2 mM 0N4R tau fibrils in binding buffer (50 mM Tris-HCl, pH 7.4, 0.1% BSA) for 1 h in the dark, and at 22° C. The incubation was terminated by filtration through a Whatman GF/B glass filter (Whatman International, Kent, UK) using a Brandel cell harvester. The filter was then washed rapidly four times with 3 mL of ice-cold wash buffer (5 mM Tris-HCl, 0.25 mM NaCl, 5% EtOH), and equilibrated for 1 h in scintillation vials containing 5 mL of Ultima Gold scintillation fluid before being analysed using a Liquid Scintillation Analyzer.
The results are shown in Table 2 in the column labeled “Tau IC50”.
Relative selectivity for tau compared to Aβ for the exemplified compounds was calculated using the results for the [^3H]-THK5117 tau and [^3H]-AZD2184 Aβ assays described above. The calculated results are shown in Table 2 in the column labeled “Selectivity for tau relative to Aβ”.

[2] = molecular target: T1, 0N4R Tau fibrils; assay: In vitro competitive binding to 0N4R tau fibrils in the presence of [^3H]-Example Compound 68 (FIG. 1)
[3] = molecular target: T2, Aβ(1-42) amyloid fibrils (Homo sapiens, UniProt P05067); assay: ^3H-AZD2184 competition binding to Aβ(1-42) fibrils in vitro; settings: [^3H]-AZD2184, Aβ(1-42) amyloid fibrils; average if run more than once
T2 construct: Aβ(1-42) amyloid fibrils
T2 sequence (P05067 672-713): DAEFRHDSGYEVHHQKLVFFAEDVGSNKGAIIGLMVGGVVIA
Protocol: Competition binding experiments to Aβ(1-42) amyloid fibrils were performed as previously described in Jureus, A., et al, Journal of Neurochemistry (2010), Vol. 114, pages 784-794 for the Example compounds of the invention indicated in Table 2, or the known tau specific ligand PBB3 (PBB3 was synthesized as previously described in M. Maruyama, et al, Neuron 2013, 79, 1094-1108).
The results are shown in Table 2 in the column labeled “Aβ IC50”.

[4] = system: tau plaques; assay: Autoradiography on brain sections from CBD and PSP patients; format: binding, human; settings: 3 nM radiotracer, with or without 1 μM unlabeled compound; compared with antibody AT8
Chain of tau plaques (P10636 561-708 limits assumed): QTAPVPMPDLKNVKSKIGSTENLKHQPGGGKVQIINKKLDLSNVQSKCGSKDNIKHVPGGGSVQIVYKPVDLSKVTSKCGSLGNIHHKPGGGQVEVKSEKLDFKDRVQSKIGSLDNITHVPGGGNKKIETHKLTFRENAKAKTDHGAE
Protocol: To examine binding of the example compounds of the present invention to tau plaques in vitro, autoradiography was carried out on brain sections from corticobasal degeneration (CBD) and progressive supranuclear palsy (PSP) patients incubated with [^3H]-Example Compound 72 or [^3H]-Example Compound 48 in the presence or absence of unlabeled Example Compound […] (1 μM) or unlabeled Example Compound 48 (1 μM), respectively. The experiment was performed as previously described in Johnson, A. E., et al, Journal of Neurochemistry (2009), Vol. 108, pages 1177-1186, but using post mortem cortical samples from corticobasal degeneration (CBD) and progressive supranuclear palsy (PSP) patients instead of from Alzheimer's disease patients.
Briefly, brain sections from the cortical samples were incubated for 30 min at 22° C. in 50 mN Tris buffer (pH 7.4) together with 3 nM [^3H]-Example Compound 72 or 3 nM [^3H]-Example Compound 48 in the presence of absence of on unlabeled Example Compound 72 (1 μM) or unlabeled Example Compound 48 (1 μM), respectively. The sections were then washed (3×10 min) in Tris buffer (1° C.) followed by a rinse in deionized water (1° C.) and air-dried at 22° C. in front of a fan. Binding was then measured and analysed as described in Johnson, A. E., et al.
The tau pathology was confirmed on adjacent brain sections by immunohisto-chemistry (IHC) using Phospho-Tau (Ser202, Thr205) Monoclonal Antibody (AT8) as previously as described in Biernat, J., et al, EMBO J. (1992) Vol. 4, pages 1593-1597. AT8 was obtained from Thermo Fisher Scientific (Phospho-PHF-Tau, Thermo Ficher Scientific, Catalog No. MN1020, Stock cone: 0.2 mg/ml, Working solution: 1/100).

[5] = Rat brain cassette exposure study; format: in vivo, Sprague Dawley rat; settings: intravenous cassette dosing
Protocol: The in vivo pharmacokinetic characteristics of the example compounds of the invention were compared directly with the known beta-amyloid specific ligand AZD2184 (Johnson, A. E., et al, Journal of Neurochemistry (2009), Vol. 108, pages 1177-1186). Rat brain exposure to three compounds of the invention and AZD2184 was measured by intravenous cassette dosing three test compound: Example Compound 43, Example Compound 47 and Example Compound 48; and AZD2184 (Novandi Chemistry) (concentration of 0.25 μmol/mL each) using the procedure previously described in Johnson, A. E., et al, Journal of Neurochemistry (2009), Vol. 108, pages 1177-1186. 6 male Sprague Dawley rat were used in the experiments, three rats per time point (2 min and 30 min).

[6] = 3 nM [^3H]-THK5117, recombinant 0N4R tau fibrils, average if run more than once

T1 sequence (P10636 1-383 isoform P10636-6): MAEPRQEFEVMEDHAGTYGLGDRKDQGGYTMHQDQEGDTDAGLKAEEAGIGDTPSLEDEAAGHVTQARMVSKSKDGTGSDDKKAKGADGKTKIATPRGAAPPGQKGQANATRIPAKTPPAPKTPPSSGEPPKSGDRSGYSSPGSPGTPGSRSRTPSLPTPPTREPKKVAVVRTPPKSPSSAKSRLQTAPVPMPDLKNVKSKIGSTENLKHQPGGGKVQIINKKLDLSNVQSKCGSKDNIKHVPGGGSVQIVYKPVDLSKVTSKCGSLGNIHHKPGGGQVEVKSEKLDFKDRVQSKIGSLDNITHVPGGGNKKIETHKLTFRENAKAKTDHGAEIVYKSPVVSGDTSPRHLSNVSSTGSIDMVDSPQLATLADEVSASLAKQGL

Molecule	IC50 [1, 6]	Selectivity for tau relative to Aβ [1]	IC50 [3]	other results
Nc1c(F)ccc2cnc(-n3ccc4ccncc43)cc12 [MK-6240, reference compound]	> 1000 nM			Tau IC50 [1, 6]: inactive; tau binding site shared (competition with [^3H]-Example Compound 68) [2]: does not share the same binding site
CNc1ccc(/C=C/C=C/c2nc3ccc(O)cc3s2)cn1 [PBB3, reference compound]		4		tau binding site shared (competition with [^3H]-Example Compound 68) [2]: share the same binding site
FCCOCCOCCOC1CCN(c2ccc(-c3nc4ccccc4s3)cn2)CC1 [Compound 6]	16 nM	0.2	3 nM	
OCC1CCN(c2ccc(-c3nc4ccc(OCCF)cc4o3)cn2)CC1 [Compound 62, (1-{5-[6-(2-Fluoroethoxy)-1,3-benzoxazol-2-yl]pyridin-2-yl}piperidin-4-yl)methanol]	22 nM	0.4	9 nM	
FCCC1CCN(c2ncc(-c3cn4ccccc4n3)cn2)CC1 [Compound 52]	49 nM	1.7	84 nM	
Oc1ccc2[nH]c(-c3cnc(N4CCC(CF)CC4)nc3)cc2c1 [Compound 69, 2-{2-[4-(Fluoromethyl)piperidin-1-yl]pyrimidin-5-yl}-1H-indol-5-ol]	10 nM	17	169 nM	
OCCC1CCN(c2ccc(-c3cc4ccccc4o3)c(F)n2)CC1 [Compound 46]	6 nM	8.8	53 nM	
COc1ncc2cc(-c3ccc(N4CCC(CO)CC4)nc3F)[nH]c2n1 [Compound 76, [1-(6-Fluoro-5-{2-methoxy-7H-pyrrolo[2,3-d]pyrimidin-6-yl}pyridin-2-yl)piperidin-4-yl]methanol]	9 nM	36	322 nM	
COc1ccc2[nH]c(-c3ccc(N4CCC(C(N)=O)CC4)nc3)cc2c1 [Compound 71, 1-[5-(5-Methoxy-1H-indol-2-yl)pyridin-2-yl]piperidine-4-carboxamide]	16 nM	7.1	114 nM	
FCCOCCOCCOC1CCN(c2ncc(-c3cc4ccccc4o3)cn2)CC1 [Compound 33]	28 nM	0.2	6 nM	
COC(=O)C1CCN(c2ccc(-c3cc4cc(O)ccc4[nH]3)c(F)n2)CC1 [Compound 67]	4 nM	8	32 nM	
COc1ccc2nc(-c3ccc(N4CCC(OCCO)CC4)nc3)sc2c1 [Compound 23]	4 nM	1	4 nM	
COc1ccc2nc(-c3ccc(N4CCC(CCF)CC4)nc3)sc2c1 [Compound 24]	2 nM	0.5	1 nM	
NC(=O)C1CCN(c2ccc(-c3cc4cc(O)ccc4[nH]3)c(F)n2)CC1 [Compound 66]	21 nM	13	272 nM	
[^3H] labeled 2-(2-fluoro-6-{4-[hydroxymethyl]piperidin-1-yl}pyridin-3-yl)-1H-indol-5-ol [[^3H]-Example Compound 48]				radiotracer binding in CBD brain tissue [4]: displaceable binding in CBD brain tissue that correlates with the tau-specific antibody AT8; radiotracer binding in PSP brain tissue [4]: displaceable binding in PSP brain tissue that correlates with the tau-specific antibody AT8
O=C(NCCO)c1ccc2nc(-c3cnc(N4CCC(CCF)CC4)nc3)sc2c1 [Compound 60]	11 nM	2.5	28 nM	
OCC1CCN(c2ncc(-c3nc4ccc(OCCF)cc4s3)cn2)CC1 [Compound 58]	6 nM	6.2	37 nM	
OCC1CCN(c2ncc(-c3nc4ccc(O)cc4s3)cn2)CC1 [Compound 57]	12 nM	25	302 nM	
COc1ccc2[nH]c(-c3ccc(N4CCC(CO)CC4)nc3F)cc2c1 [Compound 47]	2 nM	17	33 nM	
N#Cc1ccc2nc(-c3cnc(N4CCC(CCO)CC4)nc3)sc2c1 [Compound 40]	6 nM	12	70 nM	
COc1ccc2[nH]c(-c3ccc(N4CCC(C(N)=O)CC4)nc3F)cc2c1 [Example Compound 68, 1-[6-Fluoro-5-(5-methoxy-1H-indol-2-yl)pyridin-2-yl]piperidine-4-carboxamide]				tau binding site shared (competition with [^3H]-Example Compound 68) [2]: share the same binding site
[^3H] labeled (1-{5-[5-(2-Fluoroethoxy)-1H-indol-2-yl]pyrimidin-2-yl}piperidin-4-yl)methanol [[^3H]-Example Compound 72]				radiotracer binding in CBD brain tissue [4]: displaceable binding in CBD brain tissue that correlate with tau-specific antibody AT8; radiotracer binding in PSP brain tissue [4]: displaceable binding in PSP brain tissue that correlate with tau-specific antibody AT8
OCCC1CCN(c2ccc(-c3nc4ccc(O)cc4s3)cn2)CC1 [Compound 36]	3 nM	30	91 nM	
OCC1CCN(c2ccc(-c3cc4ccccc4o3)c(F)n2)CC1 [Compound 45]	9 nM	4.7	42 nM	
COc1ccc2[nH]c(-c3ccc(N4CCC(CO)CC4)nc3F)cc2c1 [Example Compound 47, {1-[6-Fluoro-5-(5-methoxy-1H-indol-2-yl)pyridin-2-yl]piperidin-4-yl}methanol]				clearance from normal rat brain tissue ([5]; 2 min and 30 min): rapidly cleared; half-life ([5]; male, Sprague Dawley, rat, brain, samples at 2 min and 30 min, read-out: calculated half-life (t1/2) in rat brain tissue): 15.8 min
